The subject of data set [1] is Huh-7 cells. The data set is described as follows: Release of active metabolite in Huh-7 cells. As to conditions: Table 7. In kind it is in vitro ADME, human.
Data set [2] is described as follows: Plasma and liver PK after single oral dose (Example 4C). In kind it is in vivo, CD-1 mice. As to conditions: at 1 μmol/kg; single oral dose 10 mg/kg for 804a or 25 mg/kg for 804b. As for the experimental part: Plasma samples were analyzed for 2′-methyl-2′-fluorouridine (2′-Me-2′-F-U) by LC-MS/MS. The internal standard (IS) was D3-2′-F-2′-Me-G. For protein precipitation and extraction, each plasma sample (50 μL) was treated with 500 μL of 0.2% formic acid in acetonitrile and 20 μL of the internal standard working solution. After vortexing and centrifugation, 500 μL of the sample extracts were transferred to a new plate, dried under N2 at ˜28° C. and reconstituted with 75 μL of 0.2% FA in water. The extracts were chromatographed on an Aquasil C18 column using a gradient system of 0.2% formic acid in water and acetonitrile. The analytes were detected and quantified by tandem mass spectrometry in positive ion mode on an MDS Sciex API5000 equipped with a Turbo Ionspray® interface. The calibration range was 0.500 (LLOQ) to 200 ng/mL in mouse plasma. The corresponding range for molar units is 1.92 to 769 pmol/mL.
Liver samples were analyzed for the active species 2′-methyl-2′-fluorouridine triphosphate (2′-Me-2′-F—U TP) by LC-MS/MS. […] Internal standard solution was added to the homogenate followed by neutralization with 20% ammonium hydroxide solution and addition of 500 μL 1% formic acid. The tissue samples were extracted by weak anion exchange solid phase extraction (SPE). […]

Data set [3] addresses T1, cathepsin A (CatA) (Homo sapiens, UniProt P10619).
T1 sequence (P10619 29-326 limits assumed): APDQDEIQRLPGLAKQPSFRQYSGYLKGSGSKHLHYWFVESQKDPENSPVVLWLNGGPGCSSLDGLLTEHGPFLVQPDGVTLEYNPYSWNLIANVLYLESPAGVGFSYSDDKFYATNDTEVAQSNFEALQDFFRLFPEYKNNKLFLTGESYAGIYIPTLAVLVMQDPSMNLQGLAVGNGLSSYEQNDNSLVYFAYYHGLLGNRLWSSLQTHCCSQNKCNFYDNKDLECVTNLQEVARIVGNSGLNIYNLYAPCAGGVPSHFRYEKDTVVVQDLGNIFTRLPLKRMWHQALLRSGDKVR
T1 sequence (P10619 327-480 limits assumed): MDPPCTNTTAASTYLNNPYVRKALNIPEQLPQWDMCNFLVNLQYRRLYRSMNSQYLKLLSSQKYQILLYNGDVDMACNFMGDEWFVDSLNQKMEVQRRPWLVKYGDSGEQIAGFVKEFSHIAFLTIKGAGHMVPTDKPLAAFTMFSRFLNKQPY
The data set is described as follows: Hydrolysis of prodrugs by Cathepsin A. In kind it is in vitro ADME.

Data set [4] in a line: Liver TP formation and liver targeting in vivo (Example 6, Table 7). Set-up: species or system mice and monkey. The text has this:
The in vitro antiviral inactivity of Z4 and Z2 is thought to reflect an inability of Huh-7 replicon cells to metabolize the prodrug moiety.

Consider `CC(C)OC(=O)[C@H](C)N[P@@](=O)(OC[C@H]1O[C@@H](n2ccc(=O)[nH]c2=O)[C@](C)(F)[C@@H]1O)Oc1ccccc1` [PSI-7976, reference compound], for which the “Huh-7 AUC0-72” value in data set [1] stood at 6527 pmol*hr/10^6cells. Further, the “Ms Plasma 2′-Me-2′-F-U AUC” value in data set [2] was found to be 0.00115 M·s. Further, in data set [3], the “Hydrolysis by CatA” value is reported as “hydrolyzed”. Also, the CatA hydrolysis in data set [3] (@ 18 h, 100 μM compound, 37° C., pH 6.0) stood at 10%. The “Liver TP” value in data set [4] worked out at 310 pmol·h/g.

These data come from patent US10717758B2, “D-amino acid compounds for liver disease” (priority 2012, dated 2020).
